In BindingDB's records for doi:10.1021/bi8010362 (Kyoto University, 2008):

The molecules below were run against NADH-ubiquinone oxidoreductase chain 1 (Bos taurus, UniProt P03887) (assay: Inhibition Assay).
Text: Inhibition assay using NADH-ubiquinone oxidoreductase (complex I).

NADH-ubiquinone oxidoreductase chain 1, sequence (P03887 whole entry): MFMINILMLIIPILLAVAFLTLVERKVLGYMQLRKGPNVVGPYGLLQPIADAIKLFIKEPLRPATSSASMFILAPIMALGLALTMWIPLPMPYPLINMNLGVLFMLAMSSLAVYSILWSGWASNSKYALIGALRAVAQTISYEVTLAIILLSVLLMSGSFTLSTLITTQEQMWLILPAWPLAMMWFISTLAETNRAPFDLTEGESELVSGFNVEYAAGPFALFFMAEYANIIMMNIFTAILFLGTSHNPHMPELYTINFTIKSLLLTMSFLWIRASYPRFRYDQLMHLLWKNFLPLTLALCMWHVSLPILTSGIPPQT

IC50 [nM] | SMILES
4700 | C[N+]1(C[C@H](O)CCCCCc2ccccc2)CC[N+](C)(C[C@H](O)CCCCCc2ccccc2)CC1 (some centres undefined) [Piperazine derivative, 23]
1.7 | O[C@H](CCCCCCCc1ccccc1)CN1CCCN(C[C@H](O)CCCCCCCc2ccccc2)CC1 [Piperazine derivative, 13]
12 | c1ccc(CCCCCCCN2CCN(CCCCCCCc3ccccc3)CC2)cc1 [Piperazine derivative, 18]
2.8 | O[C@H](CCCCCCCc1ccccc1)CN1C[C@H]2C[C@@H]1CN2C[C@H](O)CCCCCCCc1ccccc1 [Piperazine derivative, 14]
1.2 | O[C@H](CCCCCCCc1ccccc1)CN1CCN(C[C@H](O)CCCCCCCc2ccccc2)CC1 [Piperazine derivative, 10]
1.7 | O[C@H](CCCCCCc1ccccc1)CN1CCN(C[C@H](O)CCCCCCc2ccccc2)CC1 [Piperazine derivative, 9]
2.3 | O[C@@H](CCCCCCc1ccccc1)CN1CCN(C[C@@H](O)CCCCCCc2ccccc2)CC1 [Piperazine derivative, 12]
12 | O[C@H](CCCCCc1ccccc1)CN1CCN(C[C@H](O)CCCCCc2ccccc2)CC1 [Piperazine derivative, 8]
3.6 | c1ccc(CCCCCCCCCN2CCN(CCCCCCCCCc3ccccc3)CC2)cc1 [Piperazine derivative, 20]
1100 | C[N+]1(C[C@H](O)CCCCCc2ccccc2)CCN(C[C@H](O)CCCCCc2ccccc2)CC1 [Piperazine derivative, 22]
1300 | c1ccc(CCCCN2CCN(CCCCc3ccccc3)CC2)cc1 [Piperazine derivative, 21]
> 22000 | CCCCCC(O)CN1CCN(CC(O)CCCCC)CC1 (centres undefined) [Piperazine derivative, 4]
110 | CCCCCCCCCCCCCCCCC(O)CN1CCN(CC(O)CCCC)CC1 (centres undefined) [Piperazine derivative, 7]
5.9 | O[C@H](CCCCCCCCCc1ccccc1)CN1CCN(C[C@H](O)CCCCCCCCCc2ccccc2)CC1 [Piperazine derivative, 11]
26 | CCCCCCCCCCCCCCC(O)CN1CCN(CC(O)CCCCCC)CC1 (centres undefined) [Piperazine derivative, 6]
2.6 | CCCCCCCCCCC(O)CN1CCN(CC(O)CCCCCCCCCC)CC1 (centres undefined) [Piperazine derivative, 5]
670 | CN(C[C@H](O)CCCCCCCc1ccccc1)[C@H]1CCCC[C@@H]1N(C)C[C@H](O)CCCCCCCc1ccccc1 [Piperazine derivative, 15]
2.2 | c1ccc(CCCCCCCCN2CCN(CCCCCCCCc3ccccc3)CC2)cc1 [Piperazine derivative, 19]
1 | N#[N+]Nc1c(F)c(F)c(COCCCCC[C@@H](O)CN2CCN(C[C@H](O)CCCCCOc3ccc(I)cc3)CC2)c(F)c1F [Piperazine derivative, 24]
